The structures appear in SMILES notation. Read-outs that look alike come from different tables or passages of the source.

In one assay the test system is MV4-11. In words: Cell proliferation inhibition in AML cell line MV4-11 (Alamar Blue). As to conditions: Homo sapiens, MV4-11, 72 hours, read-out: Cell proliferation inhibitory activity (GI50) MV4-11. The class given is cell-based. The text has this:
(§1) Cell proliferation inhibition experiments on acute myeloid leukemia (AML) cell lines tested FLT3 inhibitory activity using MV4-11, Molm-13, and Molm-14 cells, which are FLT3-ITD-expressed AML cell lines. The origin of all cell lines is human-derived cell lines, and the place of purchase and culture conditions of each cell line are as follows.
(§2) MV4-11 cells were purchased form the American Type Culture Collection (ATCC, Rockville, MD, USA, cat #CRL-9591), Molm-13 (DSMZ, cat #ACC554), Molm-14 (DSMZ, cat #ACC777), and then cultured in RPMI 1640 medium (Corning Co. 10-040-CV) supplemented with 10% fetal bovine serum, 1% penicillin/streptomycin and 4 mM L-glutamine (Life Technology, GrandIsland, NY).
(§3) Cell viability was evaluated by Resazurin redox-based analysis method with Alamar Blue Assay Kit (Invitrogen, USA). Specifically, for MV4-11, Molm-13 and Molm-14 cells, 8000 cells were plated on 384-well plates in 45 μl of medium. Compounds were treated with dimethyl sulfoxide (DMSO) as a negative control group. After 3 days (72 hours) of compound addition, 5 μl of Alamar Blue kit reagent was added to each well of 384-well plate and incubated at 37° C. for 2 hours in a humidified CO2 incubator. After incubation, fluorescence density (Flu) was measured at a wavelength of 544 nm and 590 nm using SpectraMax iD3 Multi Mode Microplate Reader (Molecular Devices, ID3-STD). GI50 was calculated by nonlinear regression using Prism version 5.01 (GraphPad, LaJolla, CA, USA).

For a further assay, the target named is T1, FLT3 D835Y (Homo sapiens, UniProt P36888, D835Y).
T1 construct: Recombinant proteins containing the FLT3 and FLT3 (D835Y) domains were purchased from Promega; purchased Promega V4514
T1 sequence (P36888 610-943 D835Y limits assumed): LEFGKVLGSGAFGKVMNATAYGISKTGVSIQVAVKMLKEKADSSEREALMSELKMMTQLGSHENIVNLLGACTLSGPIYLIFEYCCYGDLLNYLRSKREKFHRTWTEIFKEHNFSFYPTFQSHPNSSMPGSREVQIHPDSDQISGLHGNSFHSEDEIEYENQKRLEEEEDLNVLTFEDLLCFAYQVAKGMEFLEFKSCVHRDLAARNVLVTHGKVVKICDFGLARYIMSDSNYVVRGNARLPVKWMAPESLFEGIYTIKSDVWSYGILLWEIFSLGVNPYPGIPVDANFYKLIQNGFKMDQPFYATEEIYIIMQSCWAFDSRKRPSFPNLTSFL
Kind of assay: ADP-Glo kinase assay, FLT3 D835Y. The class given is biochemical. As to conditions: recombinant FLT3 (D835Y), 120 min room temperature, read-out: Enzyme activity (IC50, nM) FLT3 D835Y. On the procedure: FLT3 activity inhibition was measured by ADP-Glo kinase assay (Promega, cat #V9101). ADP-Glo kinase analysis method is an emission ADP detect method which measures kinase activity by quantification of ADP amount produced during kinase reaction and provides uniform high-throughput screening method.
Analysis performed in two steps. First, after kinase reaction, ADP-Glo™ reagent of equal volume was added to finish kinase reaction, and then the rest ATP was exhausted. Second, Kinase Detection Reagent was added to convert ADP to ATP and newly synthesized ATP was measured by luciferase/luciferin reaction at the same time. Generated light was measured by using luminometer. The measured luminescence amount can be applied to the ATP→ADP standard conversion curve to confirm the correlation with the ADP concentration.
Recombinant proteins containing the FLT3 and FLT3 (D835Y) domains were purchased from Promega (cat #V4064, cat #V4514), respectively. According to the manufacturer's instructions, optimal enzyme, ATP, and substrate concentration were established using the ADP-Glo™ Kinase Assay (Promega, USA). Kinase reaction buffer 5× (200 mM Tris-HCl, pH 7.5, 100 mM MgCl2, 0.5 mg/ml BSA) was diluted and used, and the diluted compound of the present invention (5×, 1 μl), FLT3 enzyme or FLT3/D835Y enzyme (2.5×, 2 μl) and substrate/ATP mixture (2.5×, 2 μl), were mixed sequentially and reacted at room temperature for 120 minutes. Then, ADP-Glo™ Reagent (5 μl) was added and reacted for 40 min at room temperature. Finally, after adding a reagent for detection (Kinase Detection Reagent, 10 μl), reacting at room temperature for 30 min, and then phosphorylation of substrate peptide was measured by measuring luciferase signal (Integration time 0.5-1 second) using SpectraMax ID5 reader (Molecular Devices LLC., San Jose, CA, USA). IC50 was calculated by nonlinear regression using Prism version 5.01 (GrapghPad).

The test system of the next assay is Molm-14. Kind of assay: Cell proliferation inhibition in AML cell line Molm-14 (Alamar Blue). Conditions: Homo sapiens, Molm-14, 72 hours, read-out: Cell proliferation inhibitory activity (GI50) Molm-14. The format is cell-based.
From the text: as §1, §2, §3

The subject of the next assay is Molm-13. Kind of assay: Cell proliferation inhibition in AML cell line Molm-13 (Alamar Blue). The format is cell-based. Conditions: Homo sapiens, Molm-13, 72 hours, read-out: Cell proliferation inhibitory activity (GI50) Molm-13.
From the text: as §1, §2, §3

Turning to `O=C1Nc2ccccc2/C1=C1/Nc2ccccc2/C1=N\OCCN1CC2(CNC2)C1` [Example 1, (2Z,3E)-3-((2-(2,6-diazaspiro[3.3]heptan-2-yl)ethoxy)imino)-[2,3′-biindolinylidene]-2′-one], the GI50 in the assay on MV4-11 is 12400 pM. Further, at FLT3 D835Y, the IC50 worked out at 0.329 nM.
Taken in the same sequence, the figures for `O=C1Nc2ccccc2/C1=C1/Nc2ccccc2/C1=N\OCCN[C@H]1[C@@H]2CNC[C@@H]21` [Example 2, (2Z,3E)-3-((2-((1R,5S,6s)-3-azabicyclo[3.1.0]hexan-6-ylamino)ethoxy)imino)-[2,3′-biindolinylidene]-2′-one] were 7900 pM and 0.524 nM.
Taken in the same sequence, the figures for `N[C@@H]1[C@H]2CN(CCO/N=C3/C(=C4/C(=O)Nc5ccccc54)Nc4ccccc43)C[C@@H]12` [Example 3, (2Z,3E)-3-((2-((1R,5S,6s)-6-amino-3-azabicyclo[3.1.0]hexan-3-yl)ethoxy)imino)-[2,3′-biindolinylidene]-2′-one] were 90600 pM and 0.303 nM.
For `O=C1Nc2ccccc2/C1=C1/Nc2ccccc2/C1=N\OCCN1C[C@H]2C[C@@H]1CN2` [Example 4, (2Z,3E)-3-((2-((1R,4R)-2,5-diazabicyclo[2.2.1]heptan-2-yl)ethoxy)imino)-[2,3′-biindolinylidene]-2′-one], the results for the GI50 with Molm-14 (pM) and in the assay on Molm-13 (pM) were 30 pM and 40 pM, respectively. Further, at FLT3 D835Y, the half-maximal inhibitory concentration (IC50) turned out to be 0.216 nM.
As for `O=C1Nc2ccccc2/C1=C1/Nc2ccccc2/C1=N\OCCN1C[C@@H]2C[C@H]1CN2` [Example 5, (2Z,3E)-3-((2-((1S,4S)-2,5-diazabicyclo[2.2.1]heptan-2-yl)ethoxy)imino)-[2,3′-biindolinylidene]-2′-one], the GI50 was 1660 pM in the assay with Molm-14, 1780 pM in the assay with Molm-13 and 663 pM in the assay with MV4-11. Besides, the IC50 at FLT3 D835Y worked out at 0.135 nM.
`O=C1Nc2ccc(F)cc2/C1=C1/Nc2ccccc2/C1=N\OCCN1CC2(CNC2)C1` [Example 6, (2Z,3E)-3-((2-(2,6-diazaspiro[3.3]heptan-2-yl)ethoxy)imino)-5′-fluoro-[2,3′-biindolinylidene]-2′-one]: in the assay on MV4-11, the GI50 amounted to 15600 pM. Moreover, the IC50 at FLT3 D835Y is 0.488 nM.
The corresponding values for `O=C1Nc2ccc(F)cc2/C1=C1/Nc2ccccc2/C1=N\OCCN[C@H]1[C@@H]2CNC[C@@H]21` [Example 7, (2Z,3E)-3-((2-((1R,5S,6s)-3-azabicyclo[3.1.0]hexan-6-ylamino)ethoxy)imino)-5′-fluoro-[2,3′-biindolinylidene]-2′-one] are 5650 pM and 0.37 nM.
For the molecule `N[C@@H]1[C@H]2CN(CCO/N=C3/C(=C4/C(=O)Nc5ccc(F)cc54)Nc4ccccc43)C[C@@H]12` [Example 8, (2Z,3E)-3-((2-((1R,5S,6s)-6-amino-3-azabicyclo[3.1.0]hexan-3-yl)ethoxy)imino)-5′-fluoro-[2,3′-biindolinylidene]-2′-one], in the assay with MV4-11, the GI50 was determined as 90600 pM. The IC50 at FLT3 D835Y amounted to 0.303 nM.
As for `O=C1Nc2ccc(F)cc2/C1=C1/Nc2ccccc2/C1=N\OCCN1C[C@H]2C[C@@H]1CN2` [Example 9, (2Z,3E)-3-((2-((1R,4R)-2,5-diazabicyclo[2.2.1]heptan-2-yl)ethoxy)imino)-5′-fluoro-[2,3′-biindolinylidene]-2′-one], the results for the GI50 in the assay on Molm-14 (pM), in the assay with Molm-13 (pM) and in the assay with MV4-11 were 470 pM, 500 pM and 260 pM, respectively. Moreover, the IC50 on FLT3 D835Y was determined as 0.667 nM.
With `O=C1Nc2ccc(F)cc2/C1=C1/Nc2ccccc2/C1=N\OCCN1C[C@@H]2C[C@H]1CN2` [Example 10, (2Z,3E)-3-((2-((1S,4S)-2,5-diazabicyclo[2.2.1]heptan-2-yl)ethoxy)imino)-5′-fluoro-[2,3′-biindolinylidene]-2′-one], the GI50 in the assay on Molm-14 came to 1860 pM; with Molm-13, 1390 pM; in the assay on MV4-11, 685 pM. Also, the IC50 at FLT3 D835Y stood at 0.428 nM.
`O=C1Nc2ccc(Cl)cc2/C1=C1/Nc2ccccc2/C1=N\OCCN1C[C@H]2C[C@@H]1CN2` [Example 11, (2Z,3E)-3-((2-((1R,4R)-2,5-diazabicyclo[2.2.1]heptan-2-yl)ethoxy)imino)-5′-chloro-[2,3′-biindolinylidene]-2′-one]: the GI50 with Molm-14 (pM) came to 100 pM; with Molm-13 (pM), 162 pM; in the assay on MV4-11 (pM) it was 40 pM. Besides, the IC50 on FLT3 D835Y came out at 0.553 nM.
`O=C1Nc2ccccc2/C1=C1/Nc2ccccc2/C1=N\OCC(=O)N1CC2(CNC2)C1` [Example 15, (2Z,3E)-3-((2-oxo-2-(2,6-diazaspiro[3.3]heptan-2-yl)ethoxy)imino)-[2,3′-biindolinylidene]-2′-one]: the GI50 with MV4-11 was found to be 100000 pM. For the same molecule, at FLT3 D835Y, the IC50 was 0.798 nM.
The corresponding values for `O=C(CO/N=C1/C(=C2/C(=O)Nc3ccccc32)Nc2ccccc21)N[C@H]1[C@@H]2CNC[C@@H]21` [Example 16, N-((1R,5S,6s)-3-azabicyclo[3.1.0]hexan-6-yl)-2-(((E)-((Z)-2′-oxo-[2,3′-biindolinylidene]-3-ylidene)amino)oxy)acetamide] are 5040 pM and 0.661 nM.
The corresponding values for `O=C1Nc2ccccc2/C1=C1/Nc2ccccc2/C1=N\OCC(=O)N1C[C@H]2C[C@@H]1CN2` [Example 17, (2Z,3E)-3-((2-((1R,4R)-2,5-diazabicyclo[2.2.1]heptan-2-yl)-2-oxoethoxy)imino)-[2,3′-biindolinylidene]-2′-one] are 440 pM and 0.552 nM.
Taken in the same sequence, the figures for `O=C1Nc2ccc(F)cc2/C1=C1/Nc2ccccc2/C1=N\OCC(=O)N1CC2(CNC2)C1` [Example 18, (2Z,3E)-5′-fluoro-3-((2-oxo-2-(2,6-diazaspiro[3.3]heptan-2-yl)ethoxy)imino)-[2,3′-biindolinylidene]-2′-one] were 100000 pM and 0.306 nM.
With `O=C(CO/N=C1/C(=C2/C(=O)Nc3ccc(F)cc32)Nc2ccccc21)N[C@H]1[C@@H]2CNC[C@@H]21` [Example 19, N-((1R,5S,6s)-3-azabicyclo[3.1.0]hexan-6-yl)-2-(((E)-((Z)-5′-fluoro-2′-oxo-[2,3′-biindolinylidene]-3-ylidene)amino)oxy)acetamide], the GI50 in the assay with MV4-11 was found to be 6780 pM. The IC50 on FLT3 D835Y worked out at 0.511 nM.
Consider `O=C1Nc2ccc(F)cc2/C1=C1/Nc2ccccc2/C1=N\OCC(=O)N1C[C@H]2C[C@@H]1CN2` [Example 20, (2Z,3E)-3-((2-((1R,4R)-2,5-diazabicyclo[2.2.1]heptan-2-yl)-2-oxoethoxy)imino)-5′-fluoro-[2,3′-biindolinylidene]-2′-one], for which, in the assay on MV4-11, the GI50 worked out at 1320 pM. Besides, the IC50 on FLT3 D835Y was 0.271 nM.

(Values after patent publication US20240010635A1, “NOVEL INDIRUBIN DERIVATIVES HAVING HETEROBICYCLIC MOIETIES AND THE USE THEREOF” (priority 2022, published 2024).)
